These results are taken from ChEMBL document CHEMBL4265961, “Efficient optimization of pyrazolo[3,4-d]pyrimidines derivatives as c-Src kinase inhibitors in neuroblastoma treatment” (Bioorg Med Chem Lett, 2018).

≈ marks a conversion by molar mass, not a printed value. Calls of active or inactive are those of the source. The rule behind the calls is not given here.

The nature of series [1]: Aqueous solubility in water at 1 mg after 24 hrs at 20 degC by UV/LC-MS analysis. The class given is physicochemical.
Series [2] can be described thus: Metabolic stability in human liver microsomes after 60 mins in presence of NADPH by UV/LC-MS analysis. The format is ADME, microsome. Particulars: read-out: Stability. On the technique in general: Liver microsomes are vesicles of endoplasmic reticulum, rich in cytochrome P450 enzymes.
The nature of series [3]: Apparent permeability of the compound after 5 hrs by PAMPA. The format is ADME.
Series [4] has as its system SH-SY5Y. Briefly: Antiproliferative activity against human SH-SY5Y cells at 1 to 10 uM after 72 hrs by nucleo cell counting method. The class given is functional, cell-based.
Series [5] has as its system SH-SY5Y. Briefly: Antiproliferative activity against human SH-SY5Y cells after 72 hrs by nucleo cell counting method.
Series [6] has as its system SH-SY5Y. Briefly: Cell cycle arrest in human SH-SY5Y cells assessed as accumulation at G1 phase after 48 hrs by propidium iodide staining based flow cytometry. The format is functional.

As for `CC(Cn1ncc2c(Nc3cc(O)ccc3Cl)nc(NCCN)nc21)c1ccccc1` (stereo not drawn), the concentration in solution in series [1] (solubility at 24 h) came to 0.1 µg/mL (≈ 0.228 µM). For the same molecule, in series [2], the remaining at 1 h was found to be 98.4%. In series [3], the Papp (usually the rate of passage across a membrane or cell layer, normalised by area and donor concentration) at 5 h was determined as 2.2 ×10⁻⁶ cm/s.

As for `CC(C)Sc1nc(Nc2cccc(O)c2)c2cnn(CC(Cl)c3ccccc3)c2n1` (stereo not drawn), the remaining at 1 h in series [2] came to 93.5%.

For the molecule `CC(Cn1ncc2c(Nc3cccc(O)c3)nc(NCCO)nc21)c1ccccc1` (stereo not drawn), the concentration in solution in series [1] (solubility at 24 h) came to 134 µg/mL (≈ 332 µM). Further, the remaining at 1 h in series [2] amounted to 99.4%. The Papp at 5 h in series [3] worked out at 0.2 ×10⁻⁶ cm/s.

With `CSc1nc(Nc2cc(O)ccc2Cl)c2cnn(CC(C)c3ccccc3)c2n1` (stereo not drawn), in series [2], the remaining at 1 h was 92.7%. Moreover, in the series on SH-SY5Y [4], the outcome was Active. Further, in series [3], the Papp at 5 h was determined as 8.33 ×10⁻⁶ cm/s. For the same molecule, inhibition in the series on SH-SY5Y [5] was half-maximal at 6.7 µM (IC50).

Turning to `CSc1nc(Nc2cc(O)ccc2Cl)c2cnn(CC(Cl)c3ccccc3)c2n1` (stereo not drawn), the remaining at 1 h in series [2] came to 96.4%. In series [3], the Papp at 5 h was 3.23 ×10⁻⁶ cm/s.

`CC(Cn1ncc2c(Nc3cccc(O)c3)nc(SCCN3CCOCC3)nc21)c1ccccc1` (stereo not drawn): the solubility – broadly, the dissolved amount per volume that the medium holds – at 24 h in series [1] was 0.1 µg/mL (≈ 0.204 µM). Also, the remaining at 1 h in series [2] amounted to 99%. Moreover, the Papp at 5 h in series [3] stood at 6.81 ×10⁻⁶ cm/s.

With `Oc1ccc(Cl)c(Nc2ncnc3c2cnn3CC(Cl)c2ccccc2)c1` (stereo not drawn), the concentration in solution in series [1] (solubility at 24 h) was 0.053 µg/mL (≈ 0.132 µM). In addition, the remaining at 1 h in series [2] was 86.3%. Further, the Papp at 5 h in series [3] stood at 4.39 ×10⁻⁶ cm/s.

`Oc1cccc(Nc2nc(SCCN3CCOCC3)nc3c2cnn3CC(Cl)c2ccccc2)c1` (stereo not drawn): the concentration in solution in series [1] (solubility at 24 h) came to 0.197 µg/mL (≈ 0.385 µM). The remaining at 1 h in series [2] was 98.7%. In addition, the Papp at 5 h in series [3] is 4.44 ×10⁻⁶ cm/s.

In series [1], `OCCNc1nc(Nc2cc(O)ccc2Cl)c2cnn(CC(Cl)c3ccccc3)c2n1` (stereo not drawn) displayed a solubility at 24 h of 0.042 µg/mL (≈ 0.0914 µM). Also, the remaining at 1 h in series [2] was 97.2%. For the same molecule, the outcome with SH-SY5Y [4] was Active. Moreover, the Papp at 5 h in series [3] was determined as 2.7 ×10⁻⁶ cm/s. In the series on SH-SY5Y [5], the IC50 (commonly the point on the concentration scale where inhibition reaches its midpoint) stood at 3.1 µM. Moreover, the Activity result in the series on SH-SY5Y [6] is “Dose-dependent effect”.

`CC(Cn1ncc2c(Nc3cc(O)ccc3Cl)nc(SCCN3CCOCC3)nc21)c1ccccc1` (stereo not drawn) had a solubility at 24 h in series [1] of 0.031 µg/mL (≈ 0.059 µM). For the same molecule, in series [2], the remaining at 1 h was 97.9%. Also, the Papp at 5 h in series [3] came to 11.2 ×10⁻⁶ cm/s.

In the case of `Oc1ccc(Cl)c(Nc2nc(SCCN3CCOCC3)nc3c2cnn3CC(Cl)c2ccccc2)c1` (stereo not drawn), in series [2], the remaining at 1 h amounted to 96.9%. In the series with SH-SY5Y [4], the outcome was Active. Also, in series [3], the Papp at 5 h is 9.74 ×10⁻⁶ cm/s. In the series on SH-SY5Y [5], this molecule returned an IC50 of 6.6 µM.

On to `CC(Cn1ncc2c(Nc3cc(O)ccc3Cl)nc(NCCO)nc21)c1ccccc1` (stereo not drawn), for which the solubility at 24 h in series [1] was determined as 0.103 µg/mL (≈ 0.235 µM). In addition, the remaining at 1 h in series [2] worked out at 97.9%. Moreover, the Papp at 5 h in series [3] worked out at 0.1 ×10⁻⁶ cm/s.
